Data: patent US20230333087A1, “METHODS FOR MONITORING PATIENT RESPONSE TO TREATMENT OF RETINAL OXIDATIVE DISEASES” (BioJiva LLC, priority 2022, published 2023)

Tests used:
Format in all cases: in vivo, C57BL/6J mice
retinal function = experiment: Electroretinography
Experimental: Electroretinography was conducted on mice fed with D-DHA or natural DHA for 4 weeks to evaluate retinal function. […] Thus, using this measure, incorporation of D-DHA had no impact on retinal function (FIG. 7A). […] Toluidine blue staining was performed on plastic sections to examine retinal histology.
Mice were dark adapted overnight and anesthetized with the same procedure. The electroretinograms were recorded with an Espion E3 system (Diagnosys LLC, Lowell, MA) with a ganzfeld Color Dome stimulator as previously described. All electroretinography were performed at the same time of day.

[1] = D-DHA substitution rates in plasma, red blood cells and retina of mice on 0.5% w/w D-DHA diet; conditions: for doubling interval of D-DHA substitution rate: first order kinetics
Excerpt: Mature adult C57BL/6J mice were fed for 78 days with a customized rodent diet containing 0.5% w/w D-DHA and no natural DHA. The animals were sacrificed, and plasma, red blood cells and retinal tissues were dissected at study Days 8, 19, 38, 78, (six animals per time point, 3 males + 3 females). D-DHA + DHA were extracted from samples and derivatized into methyl esters with a mixture of heptane/ toluene (63:37 by volume), and methanol/ dimethoxypropane/ sulfuric acid (85:11:4 by volume) by gentle shaking at 80° C. for 2 hours, followed by separation and drying down of the organic phase under nitrogen. D-DHA + DHA methyl esters were structurally identified and quantified by gas chromatography coupled with a tandem mass spectrometry detector and D-DHA substitution levels (in percent of total DHA) were calculated. The results are represented in Table 1 and graphed in FIG. 1.

[2] = Ocular D-DHA accretion and elimination (0.5% D-DHA diet 77 days, DHA wash-out 73 days)
Excerpt: To determine the pharmacokinetics of ocular D-DHA uptake, incorporation and elimination from the neural retina and RPE/choroid/sclera, twelve-week-old C57BL/6J mice were fed a 0.5% D-DHA containing diet (0.5 g D-DHA/100 g food, Table 3) for 77 days followed by an additional 73-day wash-out phase with DHA. At 4 weeks, >55% of the DHA in the retina was D-DHA rising to >60% at 5 weeks (FIG. 6A). At similar time points, D-DHA in the RPE/choroid/sclera was >80%. […] Based on the accretion and elimination data, two-month-old mice were fed with diets containing either D-DHA or natural DHA control for 1 week, 2 weeks, 3 weeks, and 4 weeks before the IVT injection of iron and saline control (FIG. 6B). In order to better approximate typical DHA doses in human prescription omega-3 supplements (e.g. 1,500 mg/day DHA in Lovaza), the D-DHA and DHA experimental mouse diets were adjusted to 0.25% instead of 0.5% for most of the study. On a 0.25% D-DHA diet, retinal D-DHA levels exceeded 50% at five weeks (52.2±1.5% and 55% of total DHA by our GC- and LC- based MS methods, respectively), regardless of whether eyes were injected with iron or control saline (Table 3).
Eleven-week-old C57BL/6J mice were purchased from Jackson Laboratory (Bar Harbor, ME) and housed in 20-25 lux light conditions under 12 h day/night cycle in the Dean McGee Eye Institute Animal Research Facility at the University of Oklahoma Health Sciences Center, Oklahoma City, OK. One week after acclimatization to the vivarium with ad libitum access to laboratory rodent chow and water the animals were assigned to experimental groups. To determine ocular D-DHA accretion, the mice were switched from the laboratory rodent diet to the experimental D-DHA supplemented diet containing 0.5% D-DHA plus 6.5% high oleic soybean oil (w/w) in AIN93G^51 (Research Diet, Inc. New Brunswick, NJ). The diets were vacuum packaged and stored at - 20° C. Food was replaced three times a week with fresh food ad libitum that is stored in 4° C. after it is taken from - 20° C. Based on previous estimated retina accretion kinetics, retina, optic nerve and eye cups containing sclera, retinal pigment epithelium-choroid (RPE-choroid) were dissected from 6 mice (3 females and 3 males) at different time points during eleven weeks of D-DHA feeding. The tissues were snap frozen in liquid nitrogen, and stored in -80° C. until fatty acid analyses. After eleven weeks (77 days) on D-DHA diet, the animals were switched to the washout diet containing 0.5% DHA plus 6.5% high oleic soybean oil (w/w) in AIN93G and maintained on this diet until euthanasia at three different time points up to 73 days, when tissues were harvested for fatty acid analysis. All animal procedures were approved by the University of Oklahoma Health Sciences Center Institutional Animal Care and Use Committee.
Three types of mass spectrometric analysis were performed to confirm repeatability of results. In the first, lipids were extracted from retinas by a modified Folch method (CHCl3/CH3OH, 2:1). derivatized to fatty acid methyl esters (FAME), and analyzed by high resolution capillary gas chromatography and specialized chemical ionization tandem mass spectrometry. Baseline resolved DHA and D-DHA total ion signal were integrated, and the proportions of D-DHA/total DHA were calculated. […] Lipids were extracted and saponified, and analyzed by ESI-LC/MS on a 4000 QTrap (Sciex) operating in enhanced negative mode over an m/z range of 320 - 345 and a scan rate of 250 /sec. […]

- rod-b wave, rod-a wave and cone-b wave amplitudes (retinal function; 4 weeks diet, mice not given IVT injections, compared to natural DHA): no significant difference
- D-DHA substitution levels (in percent of total DHA) ([1]; neuroretina, day 8): 20.89%
- D-DHA substitution levels (in percent of total DHA) ([1]; neuroretina, day 19): 42.94%
- D-DHA substitution levels (in percent of total DHA) ([1]; neuroretina, day 38): 70.74%
- D-DHA substitution levels (in percent of total DHA) ([1]; neuroretina, day 78): 92.10%
- D-DHA substitution levels (in percent of total DHA) ([1]; plasma, day 8 after first exposure, 0.5% w/w D-DHA diet): 84.78%
- D-DHA substitution levels (in percent of total DHA) ([1]; plasma, day 19): 94.17%
- D-DHA substitution levels (in percent of total DHA) ([1]; plasma, day 38): 97.34%
- D-DHA substitution levels (in percent of total DHA) ([1]; plasma, day 78): 98.43%
- doubling interval of D-DHA substitution rate ([1]; plasma): 6 to 7 days
- D-DHA substitution levels (in percent of total DHA) ([1]; red blood cells, day 8): 48.24%
- D-DHA substitution levels (in percent of total DHA) ([1]; red blood cells, day 19): 72.84%
- D-DHA substitution levels (in percent of total DHA) ([1]; red blood cells, day 38): 94.12%
- D-DHA substitution levels (in percent of total DHA) ([1]; red blood cells, day 78): 96.65%
- doubling interval of D-DHA substitution rate ([1]; red blood cells): ~10 days
- doubling interval of D-DHA substitution rate ([1]; retina): 20 to 22 days
- % of the DHA in the retina that was D-DHA ([2]; 0.5% D-DHA diet, 4 weeks): > 55%
- % of the DHA in the retina that was D-DHA ([2]; 0.5% D-DHA diet, 5 weeks): > 60%
- D-DHA in the RPE/choroid/sclera ([2]; 0.5% D-DHA diet, similar time points (4-5 weeks)): > 80%
- washout in the RPE/choroid/sclera ([2]; DHA wash-out diet, compared with retina): more rapid than retina
- uptake and elimination kinetics ([2]; neural retina and RPE/choroid/sclera): classic first order kinetics
Compound: [2H]C([2H])(/C=C\CC)/C=C\C([2H])([2H])/C=C\C([2H])([2H])/C=C\C([2H])([2H])/C=C\C([2H])([2H])/C=C\CCC(=O)OCC [D-DHA, 6,6,9,9,12,12,15,15,18,18-D10-(4Z,7Z,10Z,13Z,16Z, 19Z)-docosa 4,7,10,13,16, 19-hexaenoic acid ethyl ester]
- rod b-wave, rod a-wave and cone-b wave amplitudes (retinal function; iron injected eyes, ≥50% retinal D-DHA, 1 week after injection, compared to DHA plus iron): marked protection
